For one data set, the target named is IRAK4 enzyme (Homo sapiens (Human), UniProt Q9NWZ3). The experiment in a line: IRAK4 biochemical assay (HTRF/TR-FRET). As to conditions: 500 μM ATP.
For a further data set, the system named is TNFα. The data set is described as follows: IRAK4 monocyte TNFα cell based assay (LPS stimulated). Further details: species or system human.
For data set [1], the system named is human cryopreserved hepatocytes. The data set is described as follows: Metabolic stability in cryopreserved hepatocytes. In kind it is in vitro ADME. To be noted: 1 μM test compound. The protocol: Metabolic Stability in Cryopreserved Hepatocytes: Complete HT medium was prepared by the addition of 1 mL Torpedo Antibiotic Mix to 45 mL of InVitroGRO™ HT medium. Supplemented KHB medium consisted of KrebsHenseleit buffer with amikacin (84 μg/mL), calcium chloride (1 mM), gentamicin (84 μg/mL), HEPES (20 mM), heptanoic acid (4.2 μM) and sodium bicarbonate (28.5 mM) and the pH was adjusted to 7.4 at 37° C. using 1 M NaOH or 1 M HCl. The human cryopreserved hepatocytes were pooled from ten adult donors (Celsis, Lot: HBZ).
Vials containing cryopreserved hepatocytes were removed from liquid nitrogen and immediately immersed in a 37° C. water bath. The vials were shaken gently until the contents had thawed and were then immediately emptied into 48 mL of pre warmed Complete HT Medium in a 50 mL conical tube. Cells remaining in the vial were resuspended with 1.0 mL of pre warmed Complete HT Medium and added to the conical tube. The tube was capped and then gently inverted several times to resuspend the hepatocytes. The cell suspension was centrifuged at 50×g at room temperature for 5 minutes and the supernatant discarded. The cell pellet was loosened by gently swirling the centrifuge tube and Supplemented KHB medium was added to obtain a target density of 2×10^6 cells/mL. The total cell count and the proportion of viable cells were determined by Trypan Blue dye exclusion using a hemocytometer.
For incubations, aliquots of hepatocyte suspension (250 μL containing 500,000 cells) were added to 250 μL of 2 μM test compound or metabolic stability controls in supplemented KHB in duplicate wells in a 24-well plate. Final concentration in the incubations were 1×10^6 cells/mL and 1 μM test compound. 7-Hydroxycoumarin and testosterone, compounds known to be efficiently metabolized by hepatocytes, were used as positive controls in parallel incubations ([…] final concentration of each compound). The incubation was carried out with gentle shaking at 37° C. under a humid atmosphere of 95% air/5% CO2 (v/v). Aliquots (50 μL) were removed after 0, 1, 3, and 6 hours and added to 100 μL IS/Q quenching solution. After termination, 150 μL of water was added, the plates were centrifuged at 3000×g for 10 min, and aliquots of the supernatant were analyzed on a Micromass Quattro Premier mass spectrometer coupled to an Agilent 1200 Series HPLC system with a Leap Technologies HTC PAL autosampler as described below.
Liquid Chromatography-Mass Spectrometry: Quantification of test compound and metabolic stability controls was performed by analyte/internal standard peak area ratios (PAR) measured on a Micromass Quattro Premier XL tandem triple quadrupole mass spectrometer coupled to an Agilent 1200 Series HPLC system with a Leap Technologies HTC PAL autosampler. The column used was a Phenomenex® MercuryMS™, Synergi Max-RP (100 Å pore size, 2.5 μm particle size, 20×2.0 mm). Mobile Phase A consisted of 0.2% (v/v) formic acid in 99% water/1% acetonitrile (v/v). Mobile Phase B consisted of 0.2% (v/v) formic acid in 5% water/95% acetonitrile (v/v). Elution was achieved by the following series of linear gradients: initial conditions of 0% B, holding for 30 s, then increasing to 100% B over 90 s, and then returning to the initial conditions over 1 s. The system was allowed to re-equilibrate for a minimum of 60 s between injections. The sample injection volume was 10 μL.

Data set [2] in a line: pKa determination (pKa PRO Analyzer). In kind it is physicochemical. The method, then: Sample Preparation: A stock solution of test compound in dimethyl sulfoxide (DMSO) having a final concentration of 10 mM was prepared and used in all experiments. The DMSO stocks were thawed, spun, and sonicated in a 40° C. water bath to facilitate dissolution.
The compounds were then transferred into 24 consecutive wells of a 96 well PCR plate for analysis with the aqueous method. […] The compounds were transferred into 24 consecutive wells of a 96 well plate for analysis using the co-solvent method.
Analysis: All data was obtained using a pKa PRO Analyzer (AATI, Ames, Iowa). For the aqueous method, an electrophoretic separation is performed in parallel across 24 different pH values, providing a direct measure of overall compound charge vs. pH. The compounds are detected by UV at 228 nm. The average pH spacing between buffer points is 0.4 pH units covering a typical pH range of 1.7-11.2.
The average pH spacing between buffer points is 0.4 pH units covering a pH range of 1.7-11.2. Four consecutive CE runs are performed for each compound starting with 60% co-solvent buffers and decreasing to 30% co-solvent buffers.
Norfloxacin is used as a daily performance-indicating standard.
Calculation of Results: The total number of pKa values is predicted by relating mobility and compound molecular weight using pKa Estimator® software (AATI, Ames, Iowa).

Data set [3] concerns the target cloned hERG potassium channel encoded by the KCNH2 gene (Homo sapiens (Human), UniProt Q12809). The data set is described as follows: Automated hERG assay (FASTPatch, QPatch). In kind it is cell-based. To be noted: HEK293T cells, patch clamp, 0.3-30 uM. On the technique in general: hERG is a cardiac potassium channel; its block is linked to QT prolongation.
Description: The FASTPatch® Assay (Charles River) was used to examine the in vitro effects of various compounds on the cloned hERG potassium channel encoded by the KCNH2 gene and stably expressed in HEK293T cells. Vehicle, test and control article formulations were prepared by diluting DMSO stock solutions in HB-PS (HEPES-buffered physiological saline solution), and were delivered to cells via the QPatch robot pipetting system to a final concentration of 0.3% DMSO. […] The positive control, 50 nM Cisparide, was applied in the same manner. Cell membrane currents were recorded at room temperature with up to 48 parallel patch clamp amplifiers in the QPatch HT® or QPatch HTX® system, and only cells with validated whole-cell recordings (seal resistance ≥200 MO and leak current ≤25% channel current) were used. Onset and block of hERG current was measured using a stimulus voltage pattern consisting of a 500 ms prepulse to −40 mV, a 2-second activating pulse to +40 mV, followed by a 2-second test pulse to −40 mV. The pulse pattern was repeated continuously at 10-second intervals from a holding potential of −80 mV. TurboSol analysis for test compound solubility was performed for each concentration tested using a Nephelostar reader measuring light scatter from a 635 nm laser source. […]
[4] abbreviates: human monocytes, LPS 50 pg/ml, TNFα by TR-FRET, read-out: EC50 TNF.

The structures appear in SMILES notation. Read-outs that look alike come from different tables or passages of the source.

IRAK4 enzyme, sequence (Q9NWZ3 whole entry): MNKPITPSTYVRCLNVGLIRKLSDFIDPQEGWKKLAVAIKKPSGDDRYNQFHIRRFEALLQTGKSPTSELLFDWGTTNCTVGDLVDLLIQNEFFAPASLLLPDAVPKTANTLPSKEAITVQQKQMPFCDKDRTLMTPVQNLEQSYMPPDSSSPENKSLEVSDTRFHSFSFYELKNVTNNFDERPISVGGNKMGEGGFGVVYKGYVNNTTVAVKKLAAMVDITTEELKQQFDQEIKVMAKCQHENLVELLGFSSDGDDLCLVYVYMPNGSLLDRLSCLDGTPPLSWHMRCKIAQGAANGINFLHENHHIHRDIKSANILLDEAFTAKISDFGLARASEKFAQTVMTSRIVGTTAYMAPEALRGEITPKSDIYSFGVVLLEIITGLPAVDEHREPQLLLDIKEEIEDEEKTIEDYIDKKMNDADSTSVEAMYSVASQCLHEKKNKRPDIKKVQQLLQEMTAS
cloned hERG potassium channel encoded by the KCNH2 gene, sequence (Q12809 whole entry): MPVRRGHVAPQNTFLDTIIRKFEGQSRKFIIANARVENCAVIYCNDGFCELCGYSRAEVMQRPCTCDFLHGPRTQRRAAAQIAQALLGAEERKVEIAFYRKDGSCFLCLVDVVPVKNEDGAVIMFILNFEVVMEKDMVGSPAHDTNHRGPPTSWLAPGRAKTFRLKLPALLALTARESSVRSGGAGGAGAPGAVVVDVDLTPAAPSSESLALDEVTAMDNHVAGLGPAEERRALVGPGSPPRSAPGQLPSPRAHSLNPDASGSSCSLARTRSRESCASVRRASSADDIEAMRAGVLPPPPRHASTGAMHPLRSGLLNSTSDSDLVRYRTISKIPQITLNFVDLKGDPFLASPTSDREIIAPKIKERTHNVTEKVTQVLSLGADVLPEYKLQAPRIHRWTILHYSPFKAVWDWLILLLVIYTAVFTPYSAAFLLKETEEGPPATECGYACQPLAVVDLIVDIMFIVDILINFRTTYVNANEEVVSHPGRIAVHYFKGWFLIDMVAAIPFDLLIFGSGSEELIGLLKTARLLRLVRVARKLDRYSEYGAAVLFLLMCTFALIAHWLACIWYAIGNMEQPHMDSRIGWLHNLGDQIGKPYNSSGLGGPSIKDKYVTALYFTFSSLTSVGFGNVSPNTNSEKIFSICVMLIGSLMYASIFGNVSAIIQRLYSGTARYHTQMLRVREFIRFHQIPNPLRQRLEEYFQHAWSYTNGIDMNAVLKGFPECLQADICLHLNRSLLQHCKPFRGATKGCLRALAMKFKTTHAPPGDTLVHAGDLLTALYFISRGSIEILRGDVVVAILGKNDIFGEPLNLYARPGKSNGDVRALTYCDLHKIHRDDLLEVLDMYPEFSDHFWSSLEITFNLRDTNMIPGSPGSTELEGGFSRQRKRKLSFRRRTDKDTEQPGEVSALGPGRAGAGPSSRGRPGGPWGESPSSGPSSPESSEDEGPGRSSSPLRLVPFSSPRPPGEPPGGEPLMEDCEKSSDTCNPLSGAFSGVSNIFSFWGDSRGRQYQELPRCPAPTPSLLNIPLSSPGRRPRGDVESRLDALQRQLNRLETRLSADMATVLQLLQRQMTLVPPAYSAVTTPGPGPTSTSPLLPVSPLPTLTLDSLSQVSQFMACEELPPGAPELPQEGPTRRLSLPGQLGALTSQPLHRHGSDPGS
Description for IRAK4 enzyme: IRAK4 enzyme (Carna Biosciences, Chuo-ku, Kobe, Japan) activity was measured by detecting phosphorylated peptide substrate formation using an antibody against the phosphorylated peptide substrate. This is a time-resolved fluorescence resonance energy transfer (TR-FRET) immunoassay, based on the STK1 KnEASE Assay (Cisbio, Bedford, Mass.). […] Compounds diluted in DMSO were spotted into 384 well plates using a Labcyte® Echo 550 Liquid Handling System prior to addition of IRAK4 enzyme and peptide substrate. Reaction solutions were delivered using a Multi-Flo (Bio-Tek Instruments). The enzyme and peptide solution was incubated with compound for 15 minutes at room temp before the reaction was initiated by the addition of ATP.
Description for TNFα: IRAK4 Monocyte TNFα Cell Based Assay Procedure:
The cell suspension was then plated at a density of 5,000 cells/well onto black 384 well Greiner clear bottom plates. Plates were pre-spotted with test compounds and serially diluted in DMSO where 40 nL/well were delivered using the Echo 550 acoustic liquid dispenser (Labcyte®) for a final DMSO concentration of 0.1%. Plated cells were treated with compound for 1 hour at 37° C. Cells were then stimulated with 50 pg/ml of LPS (Sigma) excluding outside columns of plate used for unstimulated cell control wells. Cells were incubated for an additional 4 hours at 37° C. Cells were then spun out of the media and 5 μl of sample were taken and analyzed for total TNFα content using the TR-FRET Human TNFα detection system (CisBio). This system utilizes two labeled antibodies (cryptate and XL665) that bind to two different epitopes of the TNFα molecule and produce FRET signal proportional to the concentration of TNFα in the sample. Detection antibodies are mixed 50:50 and 5 μL were dispensed into each well. Plates were covered with clear seals and incubated at room temp overnight. […] Percent of control was calculated as follows: % Control=100×(RatioSample−Ratio0% stimulation)/(Ratio100% Stimulation−Ratio0% Stimulation) where unstimulated cells (0% stimulation) were the negative control and stimulated cells (100% stimulation) were used as the positive control.

Consider `CC(C)Nc1cc(-c2ccc3cc(C#N)cnn23)ncc1C(=O)NC[C@@H](F)C(C)(C)O` [A, reference compound], for which the values for the concentration for half-maximal inhibition (IC50) (against IRAK4 enzyme; in data set [3]) were less than 1 nM and 3900 nM, respectively. Besides, the concentration giving a half-maximal response (EC50) – broadly, the concentration that produces a half-maximal response – in the data set on TNFα (setting [4]) stood at 23 nM; in the data set on TNFα (protein adjusted, competitive equilibrium dialysis, human plasma versus CCM with 10% FBS, read-out: Protein Adj. EC50 TNF), 504 nM. Moreover, in data set [1], the “Human Hep. Stability” value amounted to 3.33 mL/min/kg. The pKa (commonly the negative logarithm of the acid dissociation constant) in data set [2] was determined as 6.1.

Consider `CNc1cc(-c2ccc3cc(C#N)cnn23)ncc1C(=O)NC[C@@H](F)C(C)(C)O` [Compound 1, (R)-6-(3-cyanopyrrolo[1,2-b]pyridazin-7-yl)-N-(2-fluoro-3-hydroxy-3-methylbutyl)-4-(methylamino)nicotinamide], for which the “Human Hep. Stability” value in data set [1] was 0.83 mL/min/kg. This compound returned a pKa in data set [2] of 6.6.

Turning to `CC(C)(O)[C@H](F)CNC(=O)c1cnc(-c2ccc3cc(C#N)cnn23)cc1NCC#N` [Compound 2, (R)-4-((cyanomethyl)amino)-6-(3-cyanopyrrolo[1,2-b]pyridazin-7-yl)-N-(2-fluoro-3-hydroxy-3-methylbutyl)nicotinamide], in data set [1], the “Human Hep. Stability” value turned out to be 2.17 mL/min/kg. This compound also registered a pKa in data set [2] of 5.1.

Consider `C[C@H](C#N)Nc1cc(-c2ccc3cc(C#N)cnn23)ncc1C(=O)NC[C@@H](F)C(C)(C)O` [Compound 3, 4-(((R)-1-cyanoethyl)amino)-6-(3-cyanopyrrolo[1,2-b]pyridazin-7-yl)-N-((R)-2-fluoro-3-hydroxy-3-methylbutyl)nicotinamide], for which the “Human Hep. Stability” value in data set [1] was 1.3 mL/min/kg. Moreover, the pKa in data set [2] worked out at 4.9.

`CC[C@H](C#N)Nc1cc(-c2ccc3cc(C#N)cnn23)ncc1C(=O)NC[C@@H](F)C(C)(C)O` [Compound 5, 4-(((R)-1-cyanopropyl)amino)-6-(3-cyanopyrrolo[1,2-b]pyridazin-7-yl)-N-((R)-2-fluoro-3-hydroxy-3-methylbutyl)nicotinamide]: 1 nM corresponded to half-maximal inhibition against IRAK4 enzyme (IC50). In addition, the EC50 in the data set with TNFα (setting [4]) came out at 60 nM.

In the case of `CC[C@@H](C#N)Nc1cc(-c2ccc3cc(C#N)cnn23)ncc1C(=O)NC[C@@H](F)C(C)(C)O` [Compound 6, 4-(((S)-1-cyanopropyl)amino)-6-(3-cyanopyrrolo[1,2-b]pyridazin-7-yl)-N-((R)-2-fluoro-3-hydroxy-3-methylbutyl)nicotinamide], the IC50 (usually the midpoint of a concentration-inhibition curve) against IRAK4 enzyme was determined as 5 nM. In addition, the EC50 in the data set with TNFα (setting [4]) came to 267 nM.

Turning to `CC(C)(O)[C@H](F)CNC(=O)c1cnc(-c2ccc3cc(C#N)cnn23)cc1NCCC#N` [Compound 7, (R)-4-((2-cyanoethyl)amino)-6-(3-cyanopyrrolo[1,2-b]pyridazin-7-yl)-N-(2-fluoro-3-hydroxy-3-methylbutyl)nicotinamide], the EC50 in the data set with TNFα (setting [4]) came to 164 nM.

For `CC(C)(O)[C@H](F)CNC(=O)c1cnc(-c2ccc3cc(C#N)cnn23)cc1NCCCC#N` [Compound 8, (R)-4-((3-cyanopropyl)amino)-6-(3-cyanopyrrolo[1,2-b]pyridazin-7-yl)-N-(2-fluoro-3-hydroxy-3-methylbutyl)nicotinamide], the results for the IC50 (against IRAK4 enzyme; in data set [3]) were less than 1 nM and 3500 nM, respectively. Also, the concentration for a half-maximal effect (EC50) with TNFα (setting [4]) is 33 nM. Moreover, the “Human Hep. Stability” value in data set [1] worked out at 2.33 mL/min/kg. The pKa in data set [2] was found to be 5.9.

At IRAK4 enzyme, `CC(C)(C#N)Nc1cc(-c2ccc3cc(C#N)cnn23)ncc1C(=O)NC[C@@H](F)C(C)(C)O` [Compound 9, (R)-4-((2-cyanopropan-2-yl)amino)-6-(3-cyanopyrrolo[1,2-b]pyridazin-7-yl)-N-(2-fluoro-3-hydroxy-3-methylbutyl)nicotinamide] registered a 50% inhibitory concentration (IC50) of less than 1 nM. Also, the EC50 with TNFα (setting [4]) was 49 nM. Moreover, in data set [1], the “Human Hep. Stability” value is 4.33 mL/min/kg. For the same compound, the pKa in data set [2] is 4.8.

On to `CC(C)(O)[C@H](F)CNC(=O)c1cnc(-c2ccc3cc(C#N)cnn23)cc1NC1(C#N)CC1` [Compound 10, (R)-4-((1-cyanocyclopropyl)amino)-6-(3-cyanopyrrolo[1,2-b]pyridazin-7-yl)-N-(2-fluoro-3-hydroxy-3-methylbutyl)nicotinamide], for which, at IRAK4 enzyme, the IC50 is less than 1 nM. Besides, the half-maximal effective concentration (EC50) in the data set on TNFα (setting [4]) was found to be 35 nM. The “Human Hep. Stability” value in data set [1] was determined as 3.67 mL/min/kg.

The record behind these values is patent US11535622B2, “Pyrrolo[1,2-b] pyridazine derivatives” (Gilead Sciences, Inc., priority 2018, dated 2022).
